Some results are limits rather than exact numbers.

What all share (details): *Measured by radioligand binding
For assay [1], the target named is human A2B receptor (Homo sapiens (Human), UniProt P29275). As to the kind of experiment: Radioligand binding assay, A2B ([3H]-DPCPX, HEK293 membranes). As for the experimental part:
(§1) A filtration binding assay was performed for adenosine receptors A1, A2A, A2B and A3. Radioligand binding competition assay was done in duplicate in the wells of a 96-well plate (Master Block, Greiner, 786201) containing binding buffer, receptor membrane extracts, a fixed concentration of tracer, and test compound at increasing concentrations. In order to eliminate effect of buffer components, binding buffer was the same for all four receptors and contained: 50 mM Tris-HCl pH 7.4, 5 mM MgCl, 1 mM EDTA, 150 mM NaCl, 0.1% Na-azide, and 5 U/ml adenosine-deaminase. Nonspecific binding was minimized by co-incubation with 200-fold excess of cold competitor. In all radioligand binding experiments, the samples were incubated in a final volume of 0.1 ml of binding buffer for 60 minutes at 25° C. and then filtered over Unifilter plates (Perkin Elmer) pre-treated for 2 hours to limit tracer non-specific binding. Filters were washed five times with 0.5 ml of ice-cold washing buffer (50 mM Tris-HCl pH 7.4, 5 mM MgCl, 1 mM EDTA), and 50 μL of Microscint 20 (Perkin Elmer) were added to each filter. The plates were incubated 15 min at room temperature on an orbital shaker and then counted with a TopCount™ for 1 min/well.
For A2B receptor, the assay was carried with [3H]-DPCPX and membranes prepared from HEK293 cells transfected with human A2B receptor (Euroscreen FAST-003B).

Assay [2] concerns the target human A1 receptor (Homo sapiens (Human), UniProt P30542). Kind of assay: Radioligand binding assay, A1 ([3H]-DPCPX, CHO-K1 membranes). As for the experimental part: as §1
For A1 receptor, the assay was performed with [3H]-DPCPX and membranes from CHO-Kl cells transfected with human A1 receptor (Euroscreen FAST-001B).

The target of assay [3] is human A3 receptor (Homo sapiens (Human), UniProt P0DMS8). Kind of assay: Radioligand binding assay, A3 ([125I]-MECA, CHO-K1 membranes). As for the experimental part: as §1
For A3 receptor, the assay was carried out with [125IJ-MECA and membranes from CHO-Kl cells transfected with human A3 receptor (Euroscreen FAST-004B).

Assay [4] deals with human A2A receptor (Homo sapiens (Human), UniProt P29274). As to the kind of experiment: Radioligand binding assay, A2A ([3H]-NECA, HEK293 membranes). As for the experimental part: as §1
For A2A receptor, the assay was performed with [3H-NECA and membranes from HEK293 cells transfected with human A2A receptor (Euroscreen FAST-002B).

human A2A receptor, sequence (P29274 whole entry): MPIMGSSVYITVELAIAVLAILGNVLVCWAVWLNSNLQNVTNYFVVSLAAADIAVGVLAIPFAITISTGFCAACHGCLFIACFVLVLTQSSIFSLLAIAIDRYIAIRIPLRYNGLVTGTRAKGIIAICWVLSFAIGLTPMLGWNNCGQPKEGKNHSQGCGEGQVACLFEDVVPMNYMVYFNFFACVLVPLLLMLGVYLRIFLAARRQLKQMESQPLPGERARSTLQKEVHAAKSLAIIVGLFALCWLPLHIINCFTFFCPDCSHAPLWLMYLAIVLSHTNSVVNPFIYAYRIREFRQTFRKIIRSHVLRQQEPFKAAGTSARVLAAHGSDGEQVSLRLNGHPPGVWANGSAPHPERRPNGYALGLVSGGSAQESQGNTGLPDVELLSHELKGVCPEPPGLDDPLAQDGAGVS
human A2B receptor, sequence (P29275 whole entry): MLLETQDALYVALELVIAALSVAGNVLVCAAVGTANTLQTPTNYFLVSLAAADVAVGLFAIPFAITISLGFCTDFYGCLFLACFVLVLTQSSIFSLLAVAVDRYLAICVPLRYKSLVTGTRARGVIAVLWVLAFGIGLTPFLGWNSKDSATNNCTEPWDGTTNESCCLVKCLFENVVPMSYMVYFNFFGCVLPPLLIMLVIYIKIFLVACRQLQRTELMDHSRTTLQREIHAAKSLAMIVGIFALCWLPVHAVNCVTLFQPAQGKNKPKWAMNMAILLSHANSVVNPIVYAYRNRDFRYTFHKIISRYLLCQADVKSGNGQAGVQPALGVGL
human A3 receptor, sequence (P0DMS8 whole entry): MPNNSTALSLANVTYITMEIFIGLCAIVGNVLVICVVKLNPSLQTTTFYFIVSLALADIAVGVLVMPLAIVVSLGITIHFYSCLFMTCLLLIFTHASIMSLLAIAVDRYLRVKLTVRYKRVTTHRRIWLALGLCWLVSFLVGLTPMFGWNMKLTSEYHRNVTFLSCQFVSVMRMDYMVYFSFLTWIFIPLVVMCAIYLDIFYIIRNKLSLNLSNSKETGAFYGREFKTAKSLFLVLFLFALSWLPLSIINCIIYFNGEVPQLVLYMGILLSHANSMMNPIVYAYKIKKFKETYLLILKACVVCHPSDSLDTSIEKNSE
human A1 receptor, sequence (P30542 whole entry): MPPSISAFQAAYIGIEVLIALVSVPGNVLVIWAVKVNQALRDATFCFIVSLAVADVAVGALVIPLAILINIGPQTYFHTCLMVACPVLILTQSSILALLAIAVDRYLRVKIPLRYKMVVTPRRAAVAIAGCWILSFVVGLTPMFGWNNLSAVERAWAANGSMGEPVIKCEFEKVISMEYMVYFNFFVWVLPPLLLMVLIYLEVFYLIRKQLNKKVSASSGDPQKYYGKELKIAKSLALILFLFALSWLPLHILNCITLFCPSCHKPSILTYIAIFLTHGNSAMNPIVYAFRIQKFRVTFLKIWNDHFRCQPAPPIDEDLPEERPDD

For orientation: EC50 means the concentration giving half of the maximal effect. In the case of `Fc1ccccc1-c1nc(Nc2n[nH]c(C3CCC3)n2)sc1-c1ccncc1F` [Compound 1, 5-Cyclobutyl-N-[4-(2-fluorophenyl)-5-(3-fluoropyridin-4-yl)-1,3-thiazol-2-yl]-1H-1,2,4-triazol-3-amine], the EC50 in assay [1] is 2.2 nM; in assay [2], less than 5 nM; in assay [3], greater than 10000 nM; in assay [4] it was greater than 10000 nM.

The values above are taken from US20250101013A1, “FUNCTIONALIZED AMINOTHIAZOLES” (LEADXPRO AG, priority 2022, published 2025).
